# Reference: patent US12514832B2, “Methods for using low-dose colchicine after myocardial infarction” (INSTITUT DE CARDIOLOGIE DE MONTREAL, priority 2019, dated 2026)
# Where two headings read alike, the source gives them in different places.
# Tests used:
# [1] = test system: high-sensitivity C-reactive protein; assay: COLCOT biomarker substudy: high-sensitivity C-reactive protein; type: in vivo, human
# Description: Additional prespecified exploratory end points included the change from baseline to 6 months in the high-sensitivity C-reactive protein level and the change from baseline to 12 months in the white-cell count. The C-reactive protein biomarker substudy was implemented after a protocol amendment and was optional for sites and for patients; 34 sites chose to participate in this substudy.
# The analysis of the primary end point was repeated in the per-protocol population (i.e., patients without major protocol deviations). Secondary and exploratory end points expressed as time to event were analyzed similarly. The changes from baseline to follow-up were analyzed with the use of an analysis of covariance model with adjustment for baseline value, and estimates of treatment effect are presented with 95% confidence intervals.
# High-sensitivity C-reactive protein was measured in a subgroup of only 207 patients at the time of randomization and 6 months later, and the median concentration at trial entry was 4.28 mg per liter. […] The adjusted geometric mean percent changes in the high-sensitivity C-reactive protein level at 6 months after myocardial infarction were −70.0% in the colchicine group and −66.6% in the placebo group, and the placebo-adjusted geometric mean percent change was −10.1% percentage points in the colchicine group (95% CI, −28.6 to 13.4) (Table 8).
# In Table 8, the placebo-adjusted geometric mean percent change was obtained by exponentiating the adjusted mean difference between groups from the analysis of covariance model (based on log-transformed data), then subtracting 1 and multiplying by 100.
# In addition, the C-reactive protein biomarker sub-study was implemented following a protocol amendment and was optional for sites and for patients; 34 sites accepted to participate in this substudy. There were 213 and 208 patients who provided blood samples at baseline and 6 months, respectively. Paired baseline and 6-month hs-CRP values were available in 207 patients. Clinically available white blood cell counts were obtained from 2598 patients at baseline and 1998 patients at 12 months, and paired baseline and 12-month values were available in 1972 patients. Statistical analysis was conducted on the patients who provided both baseline and follow-up data and as these were exploratory analyses, no missing data was imputed.
# [2] = test system: rs6916345 (LINC01108/JARID2, chromosome 6); rs10128117 (SEPHS1, chromosome 10); conditions: for HR, gastrointestinal disorders / coef, gastrointestinal disorders / Coefficient, genetic association with gastrointestinal disorders / HR (hazard ratio), genetic association with gastrointestinal disorders: colchicine treatment arm
# [3] = colchicine arm, males + females, on-treatment pgx population
# [4] = rs535968 effect allele C vs T, males + females
# [5] = rs615497 effect allele G vs A, males + females
# [6] = rs825610 effect allele C vs T, males + females
# [7] = rs2253619 chr 10, EA T vs NEA C
# [8] = rs2253619 effect allele T vs C, males + females
# [9] = rs2476986 effect allele T vs G, males + females
# [10] = rs2783648 effect allele A vs T, males + females
# [11] = rs7894075 effect allele C vs A, males + females
# [12] = rs7901525 effect allele A vs C, males + females
smiles,measurement,setting,value
"COc1cc2c(c(OC)c1OC)-c1ccc(OC)c(=O)cc1[C@@H](NC(C)=O)CC2 [Colchicine, colchicine]","Hs-C reactive protein, geometric mean","[1]; at 6 months, N=99",1.37 mg/L
same,"Hs-C reactive protein, geometric mean","[1]; at Randomization (baseline), N=99",4.27 mg/L
same,"Hs-C reactive protein, Adjusted GM percent change","[1]; baseline to 6 months, N=99",−70.0%
same,"Hs-C reactive protein, Placebo-adjusted GM percent change","[1]; baseline to 6 months, colchicine vs placebo",−10.1%
same,reduction in the C-reactive protein level,"[1]; over the first 6 months after myocardial infarction, in both trial groups, difference between groups not significant",> 65%
same,"Gastrointestinal disorders, hr per effect allele, rs857414 (G vs T)",[2]; [3],0.6
same,"Gastrointestinal disorders, hr per effect allele, rs2327827 (G vs A)",[2]; [3],0.5
same,"Gastrointestinal disorders, hr per effect allele, rs4620126 (G vs A)",[2]; [3],0.6
same,"Gastrointestinal disorders, hr per effect allele, rs6459368 (A vs G)",[2]; [3],0.5
same,"Gastrointestinal disorders, hr per effect allele, rs6903188 (G vs A)",[2]; [3],0.6
same,"Gastrointestinal disorders, hr per effect allele, rs6918045 (T vs C)",[2]; [3],0.6
same,"Gastrointestinal disorders, hr per effect allele, rs6920905 (C vs T)",[2]; [3],0.5
same,"Gastrointestinal disorders, hr per effect allele, rs7747013 (G vs A)",[2]; [3],0.5
same,"Gastrointestinal disorders, hr per effect allele, rs7751771 (C vs T)",[2]; [3],0.5
same,"Gastrointestinal disorders, hr per effect allele, rs7764937 (C vs G)",[2]; [3],0.5
same,"Gastrointestinal disorders, hr per effect allele, rs9349955 (T vs C)",[2]; [3],0.5
same,"Gastrointestinal disorders, hr per effect allele, rs9358042 (T vs C)",[2]; [3],0.6
same,"Gastrointestinal disorders, hr per effect allele, rs9358044 (T vs A)",[2]; [3],0.5
same,"Gastrointestinal disorders, hr per effect allele, rs9370772 (T vs C)",[2]; [3],0.6
same,"Gastrointestinal disorders, hr per effect allele, rs9382993 (C vs T)",[2]; [3],0.5
same,"Gastrointestinal disorders, hr per effect allele, rs9464702 (G vs A)",[2]; [3],0.6
same,"Gastrointestinal disorders, hr per effect allele, rs9476615 (T vs C)",[2]; [3],0.6
same,"Gastrointestinal disorders, hr per effect allele, rs9476616 (G vs C)",[2]; [3],0.5
same,"Gastrointestinal disorders, hr per effect allele, rs12210439 (A vs G)",[2]; [3],0.6
same,"Gastrointestinal disorders, hr per effect allele, rs70993041 (TAA vs T)",[2]; [3],0.5
same,times more likely to have reported gastrointestinal disorders with colchicine than with placebo,[2]; genotype A/A at rs6916345,2.4 times
same,less likely to have reported gastrointestinal disorders with colchicine than with placebo,[2]; genotype G/G at rs6916345,57%
same,times more likely to have reported gastrointestinal disorders with colchicine than with placebo,[2]; genotype T/A at rs10128117,3.7 times
same,"HR, gastrointestinal disorders",[2]; [4],2.3
same,"coef, gastrointestinal disorders",[2]; [4],0.8496
same,"HR, gastrointestinal disorders",[2]; [5],2.4
same,"coef, gastrointestinal disorders",[2]; [5],0.8683
same,"HR, gastrointestinal disorders",[2]; [6],2.4
same,"coef, gastrointestinal disorders",[2]; [6],0.8604
same,"Coefficient, genetic association with gastrointestinal disorders",[2]; [7],0.921
same,"HR (hazard ratio), genetic association with gastrointestinal disorders",[2]; [7],2.51
same,"HR, gastrointestinal disorders",[2]; [8],2.5
same,"coef, gastrointestinal disorders",[2]; [8],0.9205
same,"Coefficient, genetic association with gastrointestinal disorders","[2]; rs2327827 chr 6, EA G vs NEA A",−0.620
same,"HR (hazard ratio), genetic association with gastrointestinal disorders","[2]; rs2327827 chr 6, EA G vs NEA A",0.54
same,"HR, gastrointestinal disorders",[2]; [9],2.4
same,"coef, gastrointestinal disorders",[2]; [9],0.8717
same,"HR, gastrointestinal disorders",[2]; [10],2.4
same,"coef, gastrointestinal disorders",[2]; [10],0.8625
same,"Coefficient, genetic association with gastrointestinal disorders","[2]; rs6459368 chr 6, EA A vs NEA G",−0.602
same,"HR (hazard ratio), genetic association with gastrointestinal disorders","[2]; rs6459368 chr 6, EA A vs NEA G",0.55
same,"Coefficient, genetic association with gastrointestinal disorders","[2]; rs6903188 chr 6, EA G vs NEA A",−0.598
same,"HR (hazard ratio), genetic association with gastrointestinal disorders","[2]; rs6903188 chr 6, EA G vs NEA A",0.55
same,"Coefficient, genetic association with gastrointestinal disorders","[2]; rs6916345 chr 6, EA G vs NEA A",−0.639
same,"HR (hazard ratio), genetic association with gastrointestinal disorders","[2]; rs6916345 chr 6, EA G vs NEA A",0.53
same,"Coefficient, genetic association with gastrointestinal disorders","[2]; rs6918045 chr 6, EA T vs NEA C",−0.598
same,"HR (hazard ratio), genetic association with gastrointestinal disorders","[2]; rs6918045 chr 6, EA T vs NEA C",0.55
same,"Coefficient, genetic association with gastrointestinal disorders","[2]; rs6920905 chr 6, EA C vs NEA T",−0.628
same,"HR (hazard ratio), genetic association with gastrointestinal disorders","[2]; rs6920905 chr 6, EA C vs NEA T",0.53
same,"Coefficient, genetic association with gastrointestinal disorders","[2]; rs7747013 chr 6, EA G vs NEA A",−0.600
same,"HR (hazard ratio), genetic association with gastrointestinal disorders","[2]; rs7747013 chr 6, EA G vs NEA A",0.55
same,"Coefficient, genetic association with gastrointestinal disorders","[2]; rs7751771 chr 6, EA C vs NEA T",−0.598
same,"HR (hazard ratio), genetic association with gastrointestinal disorders","[2]; rs7751771 chr 6, EA C vs NEA T",0.55
same,"Coefficient, genetic association with gastrointestinal disorders","[2]; rs7764937 chr 6, EA C vs NEA G",−0.599
same,"HR (hazard ratio), genetic association with gastrointestinal disorders","[2]; rs7764937 chr 6, EA C vs NEA G",0.55
same,"HR, gastrointestinal disorders",[2]; [11],2.4
same,"coef, gastrointestinal disorders",[2]; [11],0.8903
same,"HR, gastrointestinal disorders",[2]; [12],2.4
same,"coef, gastrointestinal disorders",[2]; [12],0.8865
